PubChem BioAssay (NCI)
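Tested at 5 concentrations; 48 h exposure; 96-well plates; endpoints linearly interpolated, else capped at highest concentration. TGI is the concentration that stops growth completely.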

Key:
Test in all cases: inhibition of tumour cell growth, NCI panel, 48 h
[1] = tested on: MOLT-4 leukemia
[2] = tested on: A549 NSCLC
[3] = tested on: U251 CNS
[4] = tested on: ACHN renal
[5] = tested on: SK-MEL-28 melanoma
[6] = tested on: LOX IMVI melanoma
[7] = tested on: NCI-H226 lung
[8] = tested on: SF-268 CNS
[9] = tested on: EKVX NSCLC
[10] = tested on: UACC-62 melanoma
[11] = tested on: UACC-257 melanoma
[12] = tested on: OVCAR-8 ovarian
[13] = tested on: HS 578T breast
[14] = tested on: OVCAR-5 ovarian
[15] = tested on: NCI-H23 lung
[16] = tested on: MDA-N
[17] = tested on: OVCAR-4 ovarian
[18] = tested on: RPMI-8226 leukemia
[19] = tested on: OVCAR-3 ovarian
[20] = tested on: SF-539 CNS
[21] = tested on: TK-10 renal
[22] = tested on: COLO 205 colon
[23] = tested on: SK-OV-3 ovarian
[24] = tested on: RXF 393 renal
[25] = tested on: SK-MEL-5 melanoma
[26] = tested on: SN12C renal
[27] = tested on: HCT-116 colon
[28] = tested on: SF-295 CNS
[29] = tested on: HOP-62 NSCLC
[30] = tested on: A498 renal
[31] = tested on: SNB-19 CNS
[32] = tested on: MDA-MB-435
[33] = tested on: MDA-MB-231 breast
[34] = tested on: NCI-H522 lung
[35] = tested on: HCT-15 colon
[36] = tested on: SR leukemia
[37] = tested on: 786-0 renal
[38] = tested on: MALME-3M melanoma
[39] = tested on: M14 melanoma
[40] = tested on: MCF7 breast
[41] = tested on: PC-3 prostate
[42] = tested on: SNB-75 CNS
[43] = tested on: CAKI-1 renal
[44] = tested on: NCI-H460 lung
[45] = tested on: NCI/ADR-RES ovarian
[46] = tested on: T-47D breast
[47] = tested on: DU-145 prostate
[48] = tested on: IGROV1 ovarian
[49] = tested on: HT29 colon
[50] = tested on: KM12 colon
[51] = tested on: K-562 leukemia
[52] = tested on: HCC-2998 colon
[53] = tested on: SW-620 colon
[54] = tested on: CCRF-CEM leukemia
[55] = tested on: HOP-92 NSCLC
[56] = tested on: SK-MEL-2 melanoma
[57] = tested on: BT-549 breast
[58] = tested on: UO-31 renal

Measured: TGI

CCOC(=O)/C(C#N)=C/c1ccc(CO)o1
not listed: [54] | [55] | [56] | [57] | [58]
> 100 µM: all other assays above

CC(NC(=O)OCc1ccccc1)NC(=O)C(CC(=O)OC(C)(C)C)NC(=O)OC(C)(C)C (centres undefined)
not listed: [36] | [52]
> 100 µM: all other assays above
